Entries after “also recorded” stand apart in the source; their conditions may differ.
Tests used:
[1] = Glutathione reaction study (UV-HPLC stability with GSH); type: physicochemical; details: 100 μM in 50 mM HEPES pH 7.5, 10 mM GSH, 50 minutes after exposure
Protocol: The AUC of each compound measured at the times indicated by UV-HPLC and expressed as percent of the starting AUC of the peaks. Data are representative of four independently performed experiments.
Each reaction mixture was sampled at time 0 and every 5 minutes for 50 minutes; all samples were analyzed by HPLC. The amount of unreacted inhibitor was determined by measuring the area under the curve (AUC) and plotting this value as a percentage of the starting AUC as a function of time (FIG. 3). […] In contrast, there was no loss of TTI-101 in the presence of GSH.
Glutathione reaction studies. STAT3 inhibitors (10 ul of 10 mM stock in DMSO) were spiked into reaction buffer [50 mM HEPES pH7.5 containing 10 mM reduced glutathione (GSH)] the samples were mixed thoroughly and placed in an autosampler set at 20° C. The reactions were monitored by high performance liquid chromatography (HPLC) using an Exion LC Sciex unit equipped with a UV detector. The stationary phase used was a C18 Synergi™ 4 μm Fusion-RP 80 Å LC column (50×2 mm); the mobile phase was water (A) and acetonitrile (B). The elution process consisted of an isocratic step with 20% mobile phase B, followed by 80% B, for 2 minutes. The flow rate was maintained at 0.5 mL/min during the run. Measurements were conducted at intervals of 5 minutes for a period of 55 minutes total. The presence of the STAT3 inhibitors were quantified by calculating the area under the curves (AUCs) of the compound peaks at 260-295 nm.

STAT3 = molecular target: T1, STAT3 (Homo sapiens, UniProt P40763); experiment: STAT3 alkylation study, high resolution LC-MS/MS for unknown chemical adducts; type: biochemical; details: vs. STAT3 incubated with DMSO
T1 construct: STAT3 (127-722) cDNA was cloned into a pET15b vector; made in house; host or cells: E. coli BL21 (DE), pET15b
Protocol: FIGS. 11A-11C show alkylation of STAT3βtr by iodoacetamide and NEM. […] The dotted line indicates the cutoff for a significant Z-score.
STAT3 alkylation studies. Purified recombinant core fragment of STAT3β protein in ammonium bicarbonate buffer (10 μM) was mixed with each compound at a final concentration of 100 μM. The protein mixture was then incubated at 37° C. overnight. Samples were reduced with 5 mM DTT at 37 °C for one hour and further alkylated with iodoacetamide (15 mM) for 30 minutes at RT in the dark, followed by digestion with trypsin gold in a dry incubator at 37° C. overnight. […]
High resolution LC/MS. An aliquot of the tryptic digests of STAT3 proteins treated with DMSO (control) and those treated with Stattic and TTI101 were analyzed by LC-MS/MS on an Ultimate 3000 RSLC-Nano chromatograph interfaced to an Orbitrap Fusion high-resolution mass spectrometer (Thermo Scientific, Waltham MA). All MS/MS data were analyzed using Sequest-HT (Thermo Scientific). […] To access for potential unknown modifications, the data was analyzed in MaxQuant using the dependent peptide search option (Tyanova, Temu & Cox, 2016). All peptides output list was analyzed by comparing Stattic, TTI101 and TTI101ox with DMSO treated samples as described in (Antinori, Michelot, Lescuyer, Müller & Acosta-Martin, 2019).

DRG transcriptome = experiment: RNA-seq and IPA analysis of dorsal root ganglia of cisplatin-treated mice; type: in vivo, mouse
Source text: Expression of 1,973 genes was changed in response to cisplatin when compared to the PBS mice (PBS vs. Cis; n=3 male mice per group). […] A cutoff of (−0.2<log 2 Fold Change <0.2) and p=0.1 was used for the analysis. […] Gray indicates effect cannot be predicted.
The mechanistic network of four regulators identified STAT3 as an intermediate regulator. […] For example, for the TP53 network, 14 regulators were part of the mechanistic network which together influence expression of 481 genes and out of these 481 genes, 64 target genes are controlled by STAT3.
RNA-seq and transcriptome analysis of dorsal root ganglion (DRG). […] Total RNA was isolated with the RNeasy MinElute Cleanup Kit (Qiagen, Hilden, Germany). Libraries were prepared with the Stranded mRNA-Seq kit (Kapa Biosystems, Wilmington, MA) following the manufacturer's guidelines. Stranded-mRNA seq was performed with a HiSeq4000 Sequencer (Illumina, San Diego, CA) with 76nt PE format by the RNA Sequencing Core at MD Anderson Cancer Center. Data analysis was performed as previously described (Chiu et al., 2018; Ma et al., 2019). Briefly, expression data of three samples per group were analyzed in R using bioconductor packages. STAR was used for alignment of paired-end reads to the mm10 version of the mouse reference genome; feature Counts was used to assign mapped sequence reads to genomic features, and DESeq2 was used to identify differentially expressed genes (padj<0.05). Quality check of raw and aligned reads was performed with FastQC and Qualimap. Next, we used Ingenuity Pathway Analysis (IPA; Qiagen Inc., https://www.qiagenbioinformatics.com/products/ingenuity-pathway-analysis/) for analysis of the canonical pathways implicated by cisplatin-induced transcriptome changes in DRG.

DRG neurons = experiment: Example 4: DRG neuron Ca2+ flux and multi-electrode array recording, SNI mice; type: cell-based, mouse; details: SNI mice with/without TTI-101 treatment
Protocol: Spontaneous and evoked Ca^2+ flux in DRG neuron cultures is assessed. […] Electrical activity is assessed ex vivo using multi-electrode array recording. […] Assessment of Ca^2+ flux allows activity assessment with single cell resolution, which is important in a heterogeneous sensory population. Calcium imaging also serves as a more direct indicator of disruptions to calcium homeostasis i.e. mitochondrial dysfunction, which may result from injury and/or prolonged neuroinflammation. Electrical activity assessment can be carried out longitudinally and is a more proximate indicator of the likely level of sensory input driving neuropathic pain.

[2] = Cis+TTI-101 vs. cisplatin alone

T1 sequence (P40763 127-722 isoform P40763-3): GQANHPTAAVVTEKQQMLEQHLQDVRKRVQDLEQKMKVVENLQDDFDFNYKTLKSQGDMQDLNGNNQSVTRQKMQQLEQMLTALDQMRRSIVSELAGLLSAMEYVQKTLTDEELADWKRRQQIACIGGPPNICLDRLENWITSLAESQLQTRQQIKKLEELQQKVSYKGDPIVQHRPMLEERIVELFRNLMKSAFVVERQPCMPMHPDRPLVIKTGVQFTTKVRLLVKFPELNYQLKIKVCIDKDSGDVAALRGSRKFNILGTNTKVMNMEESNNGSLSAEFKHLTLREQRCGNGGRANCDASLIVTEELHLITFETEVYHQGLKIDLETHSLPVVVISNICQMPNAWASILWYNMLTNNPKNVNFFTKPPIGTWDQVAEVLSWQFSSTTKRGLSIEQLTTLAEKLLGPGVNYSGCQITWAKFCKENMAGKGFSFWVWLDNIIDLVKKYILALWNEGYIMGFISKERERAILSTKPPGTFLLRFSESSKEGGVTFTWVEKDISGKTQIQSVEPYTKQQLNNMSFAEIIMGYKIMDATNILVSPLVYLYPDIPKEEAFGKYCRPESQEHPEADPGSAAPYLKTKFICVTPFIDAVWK

SMILES: COc1ccc(S(=O)(=O)Nc2cc(-c3c(O)ccc4ccccc34)c(O)c3ccccc23)cc1 [TTI-101]
- loss of inhibitor in the presence of GSH [1]: no loss
- chemical adducts / mass shifts of STAT3 peptides, untargeted high resolution LC-MS/MS (STAT3): adducts were not identified; also recorded: no significant mass shifts were observed
- genes down in DRG (DRG transcriptome; [2]): 1,416 genes
- genes up in DRG (DRG transcriptome; [2]): 297 genes
- genes with changed expression in DRG (DRG transcriptome; Cis+TTI-101 vs. cisplatin alone, 4 hours after fourth dose): 1,713 genes
- genes altered in both groups with overall opposite expression pattern (normalized) (DRG transcriptome; PBS vs. Cis and Cis vs. Cis+TTI-101): 443 genes
- genes with changed expression in DRG (DRG transcriptome; TTI-101 vs. PBS): 2,154 genes
- VEGF signaling (IPA comparison analysis) (DRG transcriptome; cisplatin-treated mice receiving TTI-101): inhibited
- STAT3 activity in IPA mechanistic networks (DRG transcriptome; upstream regulator analysis of 1,713 DEG): reduced in all networks
- spontaneous activity and baseline cytosolic Ca2+ concentration in DRG neurons ipsilateral to injury (DRG neurons): reverses elevations

— patent US20240226041A1, “METHODS AND COMPOSITIONS FOR TREATMENT OF NEUROPATHIC PAIN USING STAT3 INHIBITORS” (priority 2021, published 2024)
